Marks after values point to notes of the source that are not given here.

The source of these data is patent US12251407B2, “Use of Megamonas funiformis in preventing and/or treating metabolic diseases” (BGI SHENZHEN, priority 2018, dated 2025).

In one test the test system is AF24-28AC. In words: Antibiotic sensitivity of AF24-28AC, drug sensitive paper method. As to conditions: for Diameter of inhibition zone: antibiotic susceptibility papers on AF24-28AC plates, 37° C., 48 hours; for Sensitivity of AF24-28AC to the antibiotic (resistant / sensitive): drug sensitive paper method. Format: cell-based, Megamonas funiformis. Here is the method: The sensitivity of AF24-28AC to 20 common antibiotics was tested by the drug sensitive paper method. 100 μl of AF24-28AC bacterial solution cultured to the logarithmic phase was spread plated. Antibiotic susceptibility papers (purchased from Hangzhou Microbial Reagent Co. LTD) were affixed on the medium surface of plates, cultured at 37° C. for 48 hours, after which the size of inhibition zone was measured.

For test [1], the system named is T2D mice model. In words: T2D animal model, fasting blood glucose. The format is in vivo, C57bL/6 mice. The following applies: tail vein blood. The method, then: (§1) The T2D animal model is constructed by using C57bL/6 mice (purchased from Guangdong Medical Experimental Animal Center) at 8 weeks old and 20±2 g of body weight. The mice are housed in a specific pathogen free (SPF) environment and adaptively fed for 1 week, followed by grouping and modeling. The T2D animal model is induced by injection of streptozotocin (STZ) along with feeding high-fat feed, and the mice having a fasting blood glucose (FBG) reaching 10 mM/L can be used as a T2D mice model. Fifty mice selected for experiments are randomly divided into 5 groups. • Model group: the T2D mice model was administered with saline solution by gavage; • Bacterial agent group 1: the T2D mice model was administered with the DSM 19343 bacterial solution (1×10^8 cfu/m1) by gavage; • Bacterial agent group 2: the T2D mice model was administered with the AF24-28AC bacterial solution (1×10^8 cfu/m1) by gavage; • Bacterial agent group 3: the T2D mice model was administered with the JCM 14723 bacterial solution (1×10^8 cfu/m1) by gavage; • Metformin treatment group: the T2D mice model was treated with the positive drug metformin.
(§2) The experiment was carried out based on the different groups. After the construction of T2D mice model (i.e., FBG>10), the treatment was started and lasted for 2 months. The food intake amount and body weight of mice were recorded daily. Blood of mice was collected from the tail vein every week for detection of fasting blood glucose. The oral glucose tolerance test (OGTT) of mice was measured at week 4 of treatment and at the end of the experiment.

Test [2] has as its system T2D mice model. The experiment in a line: T2D animal model (STZ plus high-fat feed), body weight. The format is in vivo, C57bL/6 mice. As to conditions: gavage. The method, then: as §1, §2
Test [3] deals with T2D mice model. In words: T2D animal model, oral glucose tolerance test (OGTT). The format is in vivo, C57bL/6 mice. The method, then:
as §1, §2

Take `NCC[C@H](O)C(=O)N[C@@H]1C[C@H](N)[C@@H](O[C@H]2O[C@H](CN)[C@@H](O)[C@H](O)[C@H]2O)[C@H](O)[C@H]1O[C@H]1O[C@H](CO)[C@@H](O)[C@H](N)[C@H]1O` [Amikacin]: the “Diameter of inhibition zone” value with AF24-28AC is 2.6 cm.

As for `CC1(C)S[C@@H]2[C@H](NC(=O)[C@H](N)c3ccccc3)C(=O)N2[C@H]1C(=O)O` [Ampicillin], the “Diameter of inhibition zone” value in the test on AF24-28AC is 1.0 cm.

Take `CC1(C)S[C@@H]2[C@H](NC(=O)C(C(=O)O)c3ccccc3)C(=O)N2[C@H]1C(=O)O` (some centres unmarked) [Carbenicillin]: the “Diameter of inhibition zone” value in the test on AF24-28AC is 1.2 cm.

Turning to `CC1=C(C(=O)O)N2C(=O)[C@@H](NC(=O)[C@H](N)c3ccccc3)[C@H]2SC1` [Cefalexin], in the test with AF24-28AC, the “Diameter of inhibition zone” value was found to be 2.2 cm.

Regarding `Cc1nnc(SCC2=C(C(=O)O)N3C(=O)[C@@H](NC(=O)Cn4cnnn4)[C@H]3SC2)s1` [Cefazolin], the “Diameter of inhibition zone” value with AF24-28AC is 4.0 cm.

As to `CCN1CCN(C(=O)N[C@@H](C(=O)N[C@@H]2C(=O)N3C(C(=O)O)=C(CSc4nnnn4C)CS[C@H]23)c2ccc(O)cc2)C(=O)C1=O` [Cefoperazone], in the test on AF24-28AC, the “Diameter of inhibition zone” value is recorded as 0.0 cm and the “Sensitivity of AF24-28AC to the antibiotic (resistant / sensitive)” value (from here on “Sensitivity … (resistant / sensitive)”) is listed as “resistant”.

`CC1=C(C(=O)O)N2C(=O)[C@@H](NC(=O)[C@H](N)C3=CCC=CC3)[C@H]2SC1` [Cefradine]: the “Diameter of inhibition zone” value in the test on AF24-28AC came out at 0.8 cm.

As to `CO/N=C(\C(=O)N[C@@H]1C(=O)N2C(C(=O)O)=C(CSc3nc(=O)c(=O)[nH]n3C)CS[C@H]12)c1csc(N)n1` [Ceftriaxone Sodium], the “Diameter of inhibition zone” value with AF24-28AC amounted to 1.0 cm.

As for `CO/N=C(\C(=O)N[C@@H]1C(=O)N2C(C(=O)O)=C(COC(N)=O)CS[C@H]12)c1ccco1` [Cefuroxime], the “Diameter of inhibition zone” value in the test with AF24-28AC is 3.8 cm.

In the case of `C[C@H]1c2cccc(O)c2C(=O)C2=C(O)[C@]3(O)C(=O)C(C(N)=O)=C(O)[C@@H](N(C)C)[C@@H]3[C@@H](O)[C@@H]21` [Doxycycline], the “Diameter of inhibition zone” value with AF24-28AC worked out at 4.0 cm.

In the case of `CC[C@H]1OC(=O)[C@H](C)[C@@H](O[C@H]2C[C@@](C)(OC)[C@@H](O)[C@H](C)O2)[C@H](C)[C@@H](O[C@@H]2O[C@H](C)C[C@H](N(C)C)[C@H]2O)[C@](C)(O)C[C@@H](C)C(=O)[C@H](C)[C@@H](O)[C@]1(C)O` [Erythromycin], the “Diameter of inhibition zone” value in the test on AF24-28AC amounted to 1.3 cm.

As to `CC(C)(O/N=C(\C(=O)N[C@@H]1C(=O)N2C(C(=O)[O-])=C(C[n+]3ccccc3)CS[C@H]12)c1csc(N)n1)C(=O)O` [Fortum (Ceftazidime), Ceftazidime], the “Diameter of inhibition zone” value with AF24-28AC was 2.0 cm.

`NC[C@H]1O[C@H](O[C@H]2[C@H](O)[C@@H](O[C@H]3O[C@H](CO)[C@@H](O)[C@H](N)[C@H]3O)[C@H](N)C[C@@H]2N)[C@H](O)[C@@H](O)[C@@H]1O` [Kanamycin]: the “Diameter of inhibition zone” value with AF24-28AC came out at 1.8 cm.

Regarding `CN(C)C(=N)N=C(N)N` [Metformin, metformin], the “Fasting blood glucose Week 1” value in the test on T2D mice model [1] (Week 1) turned out to be 16.9 mmol/L. In addition, in the test on T2D mice model [1] (Week 3), the “Fasting blood glucose Week 3” value turned out to be 16.0 mmol/L. Also, the “Fasting blood glucose Week 5” value in the test on T2D mice model [1] (Week 5) came to 14.3 mmol/L. The “Fasting blood glucose Week 7” value with T2D mice model [1] (Week 7) is reported as 11.6* mmol/L. Further, the “Fasting blood glucose Week 9” value in the test on T2D mice model [1] (Week 9) is on record as 10.3** mmol/L. Moreover, the “Weight change Week 1” value in the test with T2D mice model [2] (Week 1) was determined as 20.33 g. Further, the “Weight change Week 3” value in the test on T2D mice model [2] (Week 3) amounted to 22.36 g. Also, the “Weight change Week 5” value with T2D mice model [2] (Week 5) came out at 24.33 g. In addition, in the test on T2D mice model [2] (Week 7), the “Weight change Week 7” value was 25.86 g. Moreover, the “Weight change Week 9” value with T2D mice model [2] (Week 9, *P<0.05 relative to model group) is 26.53* g. In addition, the “Glucose tolerance (OGTT) blood glucose 0 minute” value with T2D mice model [3] (0 minute after glucose by gavage) is listed as 9.3 mmol/L. Moreover, the “Glucose tolerance (OGTT) blood glucose 30 minutes” value with T2D mice model [3] (30 minutes after glucose by gavage) is listed as 19.4 mmol/L. The “Glucose tolerance (OGTT) blood glucose 60 minutes” value with T2D mice model [3] (60 minutes after glucose by gavage) amounted to 16.6 mmol/L. Moreover, in the test on T2D mice model [3] (90 minutes after glucose by gavage), the “Glucose tolerance (OGTT) blood glucose 90 minutes” value is 11.7* mmol/L. Also, in the test with T2D mice model [3] (120 minutes after glucose by gavage), the “Glucose tolerance (OGTT) blood glucose 120 minutes” value was determined as 10.4 mmol/L.

`CN(C)c1ccc(O)c2c1C[C@H]1C[C@H]3[C@H](N(C)C)C(O)=C(C(N)=O)C(=O)[C@@]3(O)C(O)=C1C2=O` [Minocin (Minocycline), Minocycline]: the “Diameter of inhibition zone” value in the test with AF24-28AC is recorded as 4.0 cm.

Regarding `Cc1onc(-c2ccccc2)c1C(=O)N[C@@H]1C(=O)N2[C@@H]1SC(C)(C)[C@@H]2C(=O)O` [Oxacillin], in the test on AF24-28AC, the “Diameter of inhibition zone” value came out at 0.0 cm and the “Sensitivity … (resistant / sensitive)” value is “resistant”.

With `CCN1CCN(C(=O)N[C@@H](C(=O)N[C@@H]2C(=O)N3[C@@H]2SC(C)(C)[C@@H]3C(=O)O)c2ccccc2)C(=O)C1=O` [Piperacillin], the “Diameter of inhibition zone” value in the test on AF24-28AC turned out to be 1.2 cm.

On to `CN(C)[C@@H]1C(O)=C(C(N)=O)C(=O)[C@@]2(O)C(O)=C3C(=O)c4c(O)cccc4[C@@](C)(O)[C@H]3C[C@@H]12` [Tetracycline], for which, in the test with AF24-28AC, the “Diameter of inhibition zone” value was determined as 4.2 cm.

For Gentamicin, in the test with AF24-28AC, the “Diameter of inhibition zone” value amounted to 1.7 cm.

Regarding Neomycin, in the test on AF24-28AC, the “Diameter of inhibition zone” value is 1.3 cm.

For the molecule Penicillin, in the test on AF24-28AC, the “Diameter of inhibition zone” value turned out to be 0.0 cm and the “Sensitivity … (resistant / sensitive)” value was “resistant”.
